Our source for the IC50 values is US20110183954A1, “TRICYCLIC 2,4-DIAMINO-L,3,5-TRIAZINE DERIVATIVES USEFUL FOR THE TREATMENT OF CANCER AND MYELOPROLIFERATIVE DISORDERS” (ASTRAZENECA AB, priority 2008, published 2011).

For this test, the target named is human JAK2 (Homo sapiens, UniProt O60674). In words: Method 1 (JAK2): Amplified Luminescent Proximity Assay (Alphascreen). Type of test: biochemical. More on the design: His6 (C); purchased Upstate Biotechnology; host or cells: baculovirus in Sf21 cells. To be noted: 150 pM JAK2 enzyme, 5 mM ATP, 60 minutes, room temperature, read-out: IC50 (JAK inhibitory activity, Method 1 (JAK2)). An excerpt:
JAK2 kinase activity may be determined by measuring the kinase's ability to phosphorylate synthetic tyrosine residues within a generic polypeptide substrate using an Amplified Luminescent Proximity Assay (Alphascreen) technology (PerkinElmer, 549 Albany Street, Boston, Mass.).
To measure JAK2 kinase activity, a commercially available purified enzyme may be used. The enzyme may be a C-terminal His6-tagged, recombinant, human JAK2, amino acids 808-end, (Genbank Accession number NM 004972) expressed by baculovirus in Sf21 cells (Upstate Biotechnology MA). After incubation of the kinase with a biotinylated substrate and adenosine triphosphate (ATP) for 60 minutes at room temperature, the kinase reaction may be stopped by the addition of 30 mM ethylenediaminetetraacetic acid (EDTA). The reaction may be performed in 384 well microtitre plates and the reaction products may be detected with the addition of streptavidin coated Donor Beads and phosphotyrosine-specific antibodies coated Acceptor Beads using the EnVision Multilabel Plate Reader after an overnight incubation at room temperature.

human JAK2, sequence (O60674 808-1132 limits assumed): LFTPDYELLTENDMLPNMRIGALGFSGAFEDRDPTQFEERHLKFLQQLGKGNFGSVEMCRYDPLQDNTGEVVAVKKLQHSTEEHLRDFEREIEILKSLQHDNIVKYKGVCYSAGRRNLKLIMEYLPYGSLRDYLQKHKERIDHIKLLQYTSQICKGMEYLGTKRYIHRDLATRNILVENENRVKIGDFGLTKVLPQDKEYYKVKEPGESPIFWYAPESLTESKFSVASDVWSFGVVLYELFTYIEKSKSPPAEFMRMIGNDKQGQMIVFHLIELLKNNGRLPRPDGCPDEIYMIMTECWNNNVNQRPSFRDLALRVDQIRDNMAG

For the compound `CC(Nc1nc(Nc2cn(C)cn2)nc(N2CCOCC2)n1)c1ncc(F)cc1F` (racemic) [Example 10, N-[1-(3,5-Difluoropyridin-2-yl)ethyl]-N′-(1-methyl-1H-imidazol-4-yl)-6-morpholin-4-yl-1,3,5-triazine-2,4-diamine], the IC50 worked out at 4 nM. The value for `CC(C)n1cnc(Nc2nc(N[C@@H](C)c3ncc(F)cn3)nc(N3CCOCC3)n2)c1` [Example 17, N-[(1S)-1-(5-Fluoropyrimidin-2-yl)ethyl]-N′-(1-isopropyl-1H-imidazol-4-yl)-6-morpholin-4-yl-1,3,5-triazine-2,4-diamine] was 2880 nM. With `C[C@H](Nc1nc(Nc2cn(CCc3ccccc3)cn2)nc(N2CCOCC2)n1)c1ncc(F)cn1` [Example 6, N-[(1S)-1-(5-Fluoropyrimidin-2-yl)ethyl]-6-morpholin-4-yl-N′-[1-(2-phenylethyl)-1H-imidazol-4-yl]-1,3,5-triazine-2,4-diamine], the IC50 turned out to be 283 nM. Take `COC[C@H](Nc1nc(Nc2cn(C)cn2)nc(N2CCOC(C)C2)n1)c1ncc(F)cc1F` (stereo partly drawn) [Example 2, N-[(1R)-1-(3,5-Difluoropyridin-2-yl)-2-methoxyethyl]-N′-(1-methyl-1H-imidazol-4-yl)-6-(2-methylmorpholin-4-yl)-1,3,5-triazine-2,4-diamine]: the IC50 is 11 nM.

With `C[C@H](Nc1nc(Nc2cscn2)nc(N2CCOCC2)n1)c1ncc(F)cn1` [Example 26, N-[(1S)-1-(5-Fluoropyrimidin-2-yl)ethyl]-6-morpholin-4-yl-N′-1,3-thiazol-4-yl-1,3,5-triazine-2,4-diamine], the concentration for half-maximal inhibition (IC50) came out at 219 nM. Take `C[C@H](Nc1nc(Nc2cn(C)cn2)nc(N2CCC(F)(F)CC2)n1)c1ncc(F)cc1F` [Example 9, 6-(4,4-Difluoropiperidin-1-yl)-N-[(1S)-1-(3,5-difluoropyridin-2-yl)ethyl]-N-(1-methyl-1H-imidazol-4-yl)-1,3,5-triazine-2,4-diamine]: the IC50 is 4 nM. With `COC1CN(c2nc(Nc3cn(C)cn3)nc(N[C@@H](C)c3ncc(F)cn3)n2)C1` [Example 20, N-[(1S)-1-(5-Fluoropyrimidin-2-yl)ethyl]-6-(3-methoxyazetidin-1-yl)-N′-(1-methyl-1H-imidazol-4-yl)-1,3,5-triazine-2,4-diamine], the concentration for half-maximal inhibition (IC50) came out at 7 nM. For `C[C@H](Nc1nc(Nc2cn(C)cn2)nc(N2CCC(F)(F)CC2)n1)c1ncc(F)cn1` [Example 14, 6-(4,4-Difluoropiperidin-1-yl)-N-[(1S)-1-(5-fluoropyrimidin-2-yl)ethyl]-N′-(1-methyl-1H-imidazol-4-yl)-1,3,5-triazine-2,4-diamine], the half-inhibitory concentration (IC50) turned out to be 7 nM. As for `COC[C@H](Nc1nc(Nc2cn(C)cn2)nc(N2CCOCC2)n1)c1ncc(F)cc1F` [Example 4, N-[(1R)-1-(3,5-Difluoropyridin-2-yl)-2-methoxyethyl]-N′-(1-methyl-1H-imidazol-4-yl)-6-morpholin-4-yl-1,3,5-triazine-2,4-diamine], the figure is 4 nM; as for `COC1CN(c2nc(Nc3cn(C)cn3)nc(N[C@@H](C)c3ncc(F)cc3F)n2)C1` [Example 19, N-[(1S)-1-(3,5-Difluoropyridin-2-yl)ethyl]-6-(3-methoxyazetidin-1-yl)-N′-(1-methyl-1H-imidazol-4-yl)-1,3,5-triazine-2,4-diamine], 3 nM.

In the case of `C[C@H](Nc1nc(Nc2ncc(C#N)s2)nc(N2CCOCC2)n1)c1ncc(F)cn1` [Example 7, 2-[(4-{[(1S)-1-(5-Fluoropyrimidin-2-yl)ethyl]amino}-6-morpholin-4-yl-1,3,5-triazin-2-yl)amino]-1,3-thiazole-5-carbonitrile], the IC50 is 3170 nM. Take `C[C@@H](Nc1nc(Nc2cn(C)cn2)nc(N2CCOCC2)n1)c1ncc(F)cc1F` (single isomer, unassigned) [Example 10(a)]: the 50% inhibitory concentration (IC50) amounted to 190 nM. Consider `C[C@H](Nc1nc(Nc2cn(C)cn2)nc(N2CC(F)C2)n1)c1ncc(F)cc1F` [Example 18, N-[(1S)-1-(3,5-Difluoropyridin-2-yl)ethyl]-6-(3-fluoroazetidin-1-yl)-N′-(1-methyl-1H-imidazol-4-yl)-1,3,5-triazine-2,4-diamine], for which the half-inhibitory concentration (IC50) is 13 nM.

Take `CCn1cnc(Nc2nc(N[C@@H](C)c3ncc(F)cn3)nc(N3CCOCC3)n2)c1` [Example 35, N-(1-Ethyl-1H-imidazol-4-yl)-N′-[(1S)-1-(5-fluoropyrimidin-2-yl)ethyl]-6-morpholin-4-yl-1,3,5-triazine-2,4-diamine]: the IC50 was determined as 23 nM.

Take `C[C@H](Nc1nc(Nc2c[nH]cn2)nc(N2CCOCC2)n1)c1ncc(F)cn1` [Example 23, N-[(1S)-1-(5-Fluoropyrimidin-2-yl)ethyl]-N′-1H-imidazol-4-yl-6-morpholin-4-yl-1,3,5-triazine-2,4-diamine]: the IC50 stood at 86 nM. For the compound `COC[C@H](Nc1nc(Nc2cn(C)cn2)nc(N2C[C@@H](C)O[C@@H](C)C2)n1)c1ncc(F)cc1F` [Example 1, N-[(1R)-1-(3,5-Difluoropyridin-2-yl)-2-methoxyethyl]-6-[(2R,6S)-2,6-dimethylmorpholin-4-yl]-N′-(1-methyl-1H-imidazol-4-yl)-1,3,5-triazine-2,4-diamine], the 50% inhibitory concentration (IC50) was 18 nM.

With `CCn1cnc(Nc2nc(N[C@@H](C)c3ncc(F)cc3F)nc(N3CCOCC3)n2)c1` [Example 31, N-[(1S)-1-(3,5-difluoropyridin-2-yl)ethyl]-N′-(1-ethyl-1H-imidazol-4-yl)-6-morpholin-4-yl-1,3,5-triazine-2,4-diamine], the IC50 stood at 234 nM.

Consider `C[C@H](Nc1nc(Nc2cn(C)cn2)nc(N2CCOCC2)n1)c1ncc(F)cn1` [Example 5, N-[(1S)-1-(5-Fluoropyrimidin-2-yl)ethyl]-N′-(1-methyl-1H-imidazol-4-yl)-6-morpholin-4-yl-1,3,5-triazine-2,4-diamine], for which the concentration for half-maximal inhibition (IC50) is 9 nM. `C[C@H](Nc1nc(Nc2cn(C)cn2)nc(N2CCOC[C@H]2CO)n1)c1ncc(F)cc1F` [Example 22, [(3R)-4-(4-{[(1S)-1-(3,5-difluoropyridin-2-yl)ethyl]amino}-6-[(1-methyl-1H-imidazol-4-yl)amino]-1,3,5-triazin-2-yl)morpholin-3-yl]methanol]: the IC50 came out at 4 nM. As to `COC[C@H](Nc1nc(Nc2cn(C)cn2)nc(N2CCOC(C)(C)C2)n1)c1ncc(F)cc1F` [Example 3, N-[(1R)-1-(3,5-Difluoropyridin-2-yl)-2-methoxyethyl]-6-(2,2-dimethylmorpholin-4-yl)-N-(1-methyl-1H-imidazol-4-yl)-1,3,5-triazine-2,4-diamine], the IC50 stood at 9 nM. Take `C[C@H](Nc1nc(Nc2cn(CC(F)(F)F)cn2)nc(N2CCOCC2)n1)c1ncc(F)cn1` [Example 34, N-[(1S)-1-(5-fluoropyrimidin-2-yl)ethyl]-6-morpholin-4-yl-N′-[1-(2,2,2-trifluoroethyl)-1H-imidazol-4-yl]-1,3,5-triazine-2,4-diamine]: the half-inhibitory concentration (IC50) was found to be 8320 nM. Regarding `C[C@H](Nc1nc(Nc2cn(C)cn2)nc(N2CCC(F)CC2)n1)c1ncc(F)cc1F` [Example 21, N-[(1S)-1-(3,5-Difluoropyridin-2-yl)ethyl]-6-(4-fluoropiperidin-1-yl)-N′-(1-methyl-1H-imidazol-4-yl)-1,3,5-triazine-2,4-diamine], the concentration for half-maximal inhibition (IC50) turned out to be 4 nM. For `C[C@H](Nc1nc(Nc2cn(C)cn2)nc(N2CCOCC2)n1)c1ccc(C#N)cc1` [Example 28, 4-[(1S)-1-({4-[(1-methyl-1H-imidazol-4-yl)amino]-6-morpholin-4-yl-1,3,5-triazin-2-yl}amino)ethyl]benzonitrile], the half-maximal inhibitory concentration (IC50) was 798 nM.

As to `Cc1cnc(Nc2nc(N[C@@H](C)c3ncc(F)cn3)nc(N3CCOCC3)n2)s1` [Example 8, N-[(1S)-1-(5-Fluoropyrimidin-2-yl)ethyl]-N′-(5-methyl-1,3-thiazol-2-yl)-6-morpholin-4-yl-1,3,5-triazine-2,4-diamine], the IC50 came to 4 nM. As for `C[C@H](Nc1nc(Nc2cn(CCc3ccsc3)cn2)nc(N2CCOCC2)n1)c1ncc(F)cn1` [Example 33, N-[(1S)-1-(5-Fluoropyrimidin-2-yl)ethyl]-6-morpholin-4-yl-N′-{1-[2-(3 thienyl)ethyl]-1H-imidazol-4-yl}-1,3,5-triazine-2,4-diamine], the half-maximal inhibitory concentration (IC50) came to 998 nM. As to `C[C@H](Nc1nc(Nc2cn(C)cn2)nc(N2CCOCC2)n1)c1ncc(F)cc1F` (single isomer, unassigned) [Example 10(b)], the IC50 is less than 8 nM.

As for `COCn1cnc(Nc2nc(N[C@@H](C)c3ncc(F)cn3)nc(N3CCOCC3)n2)c1` [Example 16, N-[(1S)-1-(5-Fluoropyrimidin-2-yl)ethyl]-N′-[1-(methoxymethyl)-1H-imidazol-4-yl]-6-morpholin-4-yl-1,3,5-triazine-2,4-diamine], the half-maximal inhibitory concentration (IC50) stood at 2870 nM. The value for `C[C@H](Nc1nc(Nc2cn(C3CC3)cn2)nc(N2CCOCC2)n1)c1ncc(F)cn1` [Example 32, N-(1-Cyclopropyl-1H-imidazol-4-yl)-N′-[(1S)-1-(5-fluoropyrimidin-2-yl)ethyl]-6-morpholin-4-yl-1,3,5-triazine-2,4-diamine] was 393 nM; that for `C[C@H](Nc1nc(Nc2cn(CC#N)cn2)nc(N2CCOCC2)n1)c1ncc(F)cn1` [Example 15, {4-[(4-{[(1S)-1-(5-Fluoropyrimidin-2-yl)ethyl]amino}-6-morpholin-4-yl-1,3,5-triazin-2-yl)amino]-1H-imidazol-1-yl}acetonitrile] was 873 nM.
